Experimental findings from patent publication US20260263555A1, “ANNEXIN A1 DELAYED DOSING” (Reso Ther Pharma A/S, priority 2023, published 2026) are described below.

No end group written: not given here.

The test system of the test is rat model of acute myocardial infarction. The test is described as follows: Peptide 1 treatment for 1 day versus 3 days, cardiac function by transthoracic echocardiography in a rat model of acute myocardial infarction. In kind it is in vivo, male Sprague Dawley rats. How it is done:
Myocardial infarction was induced in male Sprague Dawley rats. On day 0 rats were anaesthetized with a mixture of 2 to 2.2% isoflurane USP (Abbot Laboratories, Montreal Canada) in oxygen, and placed on a heating pad (set at 37° C.) to maintain body temperature. The animals were intubated and immediately ventilated with a mixture of 2 to 2.2% isoflurane USP (Abbot Laboratories, Montreal Canada) in oxygen by means of a positive-pressure rodent respirator (CWE model SAR-830/P) set at ≈10 mL/kg bodyweight at a frequency of 70-80 strokes/min. The pericardium was opened to expose the heart and a 5-0 wax coated braided silk suture (Sofsilk™) was placed around the left anterior descending (LAD) coronary artery, approximately 2-3 mm below the left atrium. The suture was briefly snared to verify the size and location of myocardial ischemia based on colour change and was then tied to produce a large anterolateral myocardial infarction (affecting around 45% of the LV). The suture was kept in place for 30 minutes (30 minutes of ischemia) followed by reperfusion. A group of rats receiving sham procedure was also included. […] Fourteen days after ischemia, cardiac function was assessed by transthoracic echocardiography (echocardiograph model Q9, ChisonMedical Imaging Co. connected to a Chison 12.0 MHz probe).

With “AMVSEFLKQAWFIENEEQEYVQTLKSSKGGPGSAVSPYPTFNPSSDV (AMVSEFLKQAWFIENEEQEYVQTLKSSKGGPGSAVSPYPTFNPSSDV-NH2; ends and bridges not checked) [Peptide 1]”, the “improvement of cardiac output compared to vehicle treatment” value (14 days post ischemia, tail vein, three daily dosages (0, 3, 6 h post reperfusion) for 1 day or 3 days, 10, 30 or 100 ug/kg) is on record as 20-30%. Also, under “at least three dosages, echocardiography 14 days after ischemia, vs vehicle”, the long-term cardiac function result is given as “significantly improves long-term cardiac function”.
